pIC50: −log10 of the molar value.

The test addresses MAP kinase-activated protein kinase 2 (Homo sapiens, UniProt P49137). Briefly: Inhibition of human recombinant MK2 by ELISA. (In general: ELISA stands for enzyme-linked immunosorbent assay.)

Chain of MAP kinase-activated protein kinase 2 (P49137 whole entry): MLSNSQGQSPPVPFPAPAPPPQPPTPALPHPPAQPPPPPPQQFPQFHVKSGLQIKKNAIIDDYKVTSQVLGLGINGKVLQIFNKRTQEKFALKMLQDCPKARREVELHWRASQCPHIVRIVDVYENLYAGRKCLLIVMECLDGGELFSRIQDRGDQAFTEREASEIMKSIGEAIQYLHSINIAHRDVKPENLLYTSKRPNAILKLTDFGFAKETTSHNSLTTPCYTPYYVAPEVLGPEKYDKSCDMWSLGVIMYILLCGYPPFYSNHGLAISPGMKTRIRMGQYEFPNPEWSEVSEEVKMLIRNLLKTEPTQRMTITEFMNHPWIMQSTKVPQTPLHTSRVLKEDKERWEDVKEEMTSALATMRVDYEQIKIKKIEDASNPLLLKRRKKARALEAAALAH

What is called pIC50 is the IC50 on a negative log10 scale, so that one unit is a factor of ten. For `CCCc1cc(=O)c2c(Cc3cc(O)cc(=O)o3)cccc2o1` [PHAEOCHROMYCIN C], the pIC50 was 3.89. Then `CCCc1cc(O)c2c(O)cccc2c1-c1cc(O)cc(=O)o1` [PHAEOCHROMYCINS A], with 4.41.

(Values after ChEMBL document CHEMBL1141784, “Phaeochromycins A-E, anti-inflammatory polyketides isolated from the soil actinomycete Streptomyces phaeochromogenes LL-P018” (J Nat Prod, 2005).)
